Data taken from US7368100B2, “Backbone-substituted bifunctional DOTA ligands, complexes and compositions thereof, and methods of using same” (The United States of America, represented by the Secretary, …, priority 2002, dated 2008).

Legend:
[1] = tested on: HER2 positive cells (N87); experiment: Live-cell radioimmunoassay (immunoreactivity) of radiolabeled HERCEPTIN preparations; format: binding, human; details: for HER2 + (percent binding): N87 cells, overnight 4° C., average of the serial dilutions; for HER2 − (percent binding): column HER2 −, not explained, text describes incubation with excess (10 μg) unlabeled HERCEPTIN
Description: The human colon carcinoma (LS-174T) cell line was grown in supplemented Eagle's minimum essential medium as previously described (see Brechbiel et al., Inorg Chem., 25, 2772 (1986); and Lagunas-Solar et al., Appl. Radiat. Isot., 38, 129-137 (1987)). The human gastric carcinoma cell line (N87) was kindly provided by Dr. Raya Mandler, Metabolism Branch, NCI. The N87 cell line (Jurcic et al., Advances in Pharmacology, Vol. 33, (J. T. August, M. W. Anders, F. Murad, J. T. Coyle Eds.) pp 287-314, Academic Press, Inc., New York, (1995)), which expresses high levels of HER2, was maintained in RPMI 1640 (Quality Biologicals, Gaithersburg, Md.) medium, supplemented with 10% fetal bovine serum (FBS) (Gemini Bio-Products, Woodland, Calif.) and 0.01 mM non-essential amino acids (Quality Biologicals, Gaithersburg, Md.).
The immunoreactivity of the RIC was assessed in a live-cell radioimmunoassay (RIA) as detailed elsewhere (Garmestani et al., Nuci. Med. Biol., 29, 599-606 (2002)). HER2 positive cells (N87) were harvested, pelleted at 1,000×g (Allegra 6KR; Beckman Coulter, Palo Alto, Calif.) and resuspended in PBS (pH 7.2) containing 1% BSA and were added to 12×75 […] polypropylene tubes (1×10^6 cells in 100 μL). Serial dilutions of the radiolabeled HERCEPTIN preparations (about 200,000 cpm -12,500 cpm in 50 μL) were then added in duplicate and gently shaken. Following an overnight incubation at 4° C., the cells were washed once with 4 mL of 1% BSA in PBS and pelleted at 1,000×g for 5 min, and the supernatant was decanted. The pelleted cells were then counted in a γ-scintillation counter (Packard), and the percent binding was calculated for each dilution. The values presented in Table 1 are an average of the serial dilutions. To confirm the specific reactivity of the RIC, cells were incubated with about 200,000 cpm of the RIC along with an excess (10 μg) of unlabeled HERCEPTIN.

[2] = tested on: human colon carcinoma (LS-174T) xenografts; details: mouse, in vivo
Description: The radioimmunoconjugates (RICs) were compared in vivo using athymic mice bearing human colon adenocarcinoma xenografts. Female athymic mice (nu/nu), obtained from Charles River Laboratories (Wilmington, Mass.) at 4-6 weeks of age, were injected subcutaneously on the flank with 2×10^6 LS-174T cells in 0.2 mL of RPMI-1640. At approximately 10-14 days, when the tumors measured between 0.4-0.6 cm in diameter, the mice received the ^177Lu-labeled HERCEPTIN. The mice were injected with each RIC (about 5 μCi of each) intravenously (i.v.) via the tail vein. Mice (n=5) were sacrificed by exsanguination at 24, 48, 72, 96 and 168 h.
Blood, tumor and the major organs were collected and wet-weighed, and the radioactivity was counted in a γ-counter (Minaxi-γ, Packard, Downers Grove, Ill.). The percent injected dose per gram (% ID/g) was determined for each tissue as well as the radiolocalization indices (% ID/g in tumor divided by the % ID/g in the normal tissue). The mean and average deviation for each tissue was also calculated.
Following injection of the radioimmunoconjugates (n=5), blood samples were collected at various time points via the tail vein in heparinized capillary tubes (10 μL). The blood was transferred to a tube, and the radioactivity was measured in a γ-counter. The percent injected dose per mL of blood was calculated for each of the samples.
If the radioactivity in the tissues is due to specific accumulation, then the tissue-to-blood ratio would increase as a function of time. If the radioactivity in the tissues is a result of that radioactivity present in the plasma compartment, then the tissue-to-blood ratio would remain constant with time.

[3] = tested on: leukemia cell line; details: directed against a leukemia cell line; Nikula et al. 1999; cited from earlier work

Substance | HER2 + (percent binding) [1] | HER2 − (percent binding) [1] | liver % ID/g, comparison among RIC [2] | spleen-to-blood ratios [2] | cell killing ability [3] | femur-to-blood ratios, course over time [2]
1B4M-DOTA (7) | 47.2% | 6.7% | lowest liver % ID/g values throughout the entire study period | less than 1 |  | 
Bismuth-labeled HuM195 |  |  |  |  | specific and potent cell killing ability | 
CHX-DOTA (14) | 45.8% | 4.3% |  | less than 1 |  | higher overall than the other RIC
